Assay results published in patent US6420563B1, “Small molecule modulators of G protein-coupled receptor six” (Arena Pharmaceuticals, Inc., priority 1998, dated 2002).

Assay: Long-term (60 days) body weight, daily repeated IP administration, non-food deprived rats
Format: in vivo, rat
Settings: 13.5 mg/kg IP once a day for 22 days, assessed for 60 days
Method: Long-term effects (60 days) of ARE112 were also examined. Animals (treatment, n=4; control, n=5) were treated once a day intraperitoneally with ARE112 for 22 days and assessed for a period of 60 days. On days 1 to 3, animals treated with dose of 13.5 mg/kg initially lost body weight and between day 4 and day 31, animals gradually gained weight, although still weighing less than vehicle treated animals. […] See, FIG. 11.

Structure (SMILES): O=C(N=C1SSC2=NCCN21)c1cccs1 [ARE112, N-(5,6-dihydro-3H-imidazo[2,1-c]-1,2,4-dithiazol-3-ylidene)-thiophen-2-carboxamide]
- body weight, long-term: long-term decrease in body weight
